Test: Release of nicotine and vanillin from devices in artificial saliva
Assay type: physicochemical
Conditions: device with 50 w-% PVA / 50 w-% PLA, ca. 20 mg
Protocol: Three devices of each polymer matrix formulation were chosen for drug release experiments. Prior to the experiments, the dimensions and weight of the capsules were recorded. In the drug release experiments, the capsules were immersed in 2 mL of artificial saliva, which itself consists of a solution of 16.8 mM Na2HPO4, 1.4 mM KH2PO4, and 137 mM NaCl salts dissolved in purified water at pH 6.75. The solution was kept at 37° C. and under constant stirring. Once a day, 150 μL of solution was withdrawn from each sample to measure the amount of released drug in a high-performance liquid chromatography apparatus (HPLC). An equal amount of solution was added after each withdrawal to keep the total volume constant. The experiment was ceased between 35 and 42 days, due to devices turning red resulting from paracetamol degradation, or when all the drug was deemed to be released.
The release of nicotine and vanillin was measured similarly as in Examples 1 and 2.

**Q.** What does the source list for `CN1CCCC1c1cccnc1` (stereo not drawn) [Nicotine, nicotine]?
**A.** cumulative release from device (day 2): 6 µg; cumulative release from device (day 14): ca. 7 μg; loading degree in device: 0.04 w-%

**Q.** Which results are given for `COc1cc(C=O)ccc1O` [Vanillin, vanillin]?
**A.** cumulative release from device (day 4): ca. 50 μg; cumulative release from device (day 7): 65 µg; loading degree in device: 0.32 w-%

From US20220233435A1 (priority 2019, published 2022)
